According to patent US7122359B2, “Active-site engineering of nucleotidylyltransferases and general enzymatic methods for the synthesis of natural and “unnatural” UDP- and TDP-nucleotide sugars” (priority 2000, dated 2006):

Assays:
[1] = target: T1, Salmonella enterica LT2 α-D-glucopyranosyl phosphate thymidylyltransferase (Ep) (Salmonella typhimurium, UniProt P26393); experiment: Ep-catalyzed conversion of α-D-hexopyranosyl phosphates and NTP to NDP-sugars, HPLC (FIG. 2); format: biochemical; conditions: 5 mM NTP, 10 mM sugar phosphate, 30 min, 37° C.
T1 construct: made in house; host or cells: E. coli (E. coli-prfbA-C)
Source text: FIG. 2. E^p-Catalyzed Conversion of Substrates wherein superscript indicators (a)–(h) are as follows: (a) Percent conversion=[Ap/(AP+AT)]×100, where AP is the NDP-sugar product peak integration and AT represents the NTP peak integration. HRMS for all observed products reported in the supporting information. (b) Standard retention times: TDP, […]; TTP, 7.2 mm; UDP, 4.0 mm; UTP, 6.1 mm. (c) Commercially available. (d) Coelutes with commercially available standard. […] (f) Adjusted for the 2:1 α/β-28. (g) In contrast to previously published studies (See Lindquist, L; Kaiser, R.; Reeves, P. R.; Lindberg, A. A., Eur J. Biochem, 1993, 211, 763–770). (h) No products observed.
To evaluate the synthetic utility of purified thymidylyltransferase, Ep, α-D-hexopyranosyl phosphate, Mg^+2 and NTP were incubated at about 37° C. for about 30 min and the extent of product formation determined by HPLC. The results of these assays are illustrated in FIG. 2. Confirmation of product formation was based upon HPLC co-elution with commercially available standards and/or HPLC isolation and high resolution mass spectroscopy of the product. […] A reaction containing 5 mM NTP, 10 mM sugar phosphate and 5.5 mM MgCl2 in a total volume of 50 μL 50 mM potassium phosphate buffer, pH 7.5 at 37° C. was initiated by the addition of 3.52 U Ep (1 U=the amount of protein needed to produce 1 μmol TDP-D-glucose min^−1). The reaction was incubated with slow agitation for 30 min at 37° C., quenched with MeOH (50 μL), centrifuged (5 min, 14,000×g) and the supernatant was stored at −20° C. until analysis by HPLC. Samples (20 μL) were resolved on a Sphereclone 5 u SAX column (250×4.6 mm) fitted with a guard column (30×4.6 mm) using a linear gradient (20–60 mM potassium phosphate buffer, pH 5.0, 1.5 mL min^−1, A275 nm).

[2] = target: T1, Salmonella enterica LT2 α-D-glucopyranosyl phosphate thymidylyltransferase (Ep); format: biochemical; conditions: secondary plot of Lineweaver-Burke plots, assays in triplicate
Source text: FIG. 10. […] The conditions for the Ep assay conditions and HPLC resolution of reactants and products were similar to those described in Jiang, J., Biggins, J. B. & Thorson, J. S. A General Enzymatic Method for the Synthesis of Natural and “Unnatural” UDP- and TDP-Nucleotide Sugars. J. Am. Chem. Soc. 122, 6803–6804 (2000).
(§1) Assays for product formation and steady state kinetics were accomplished using conditions similar to those described. in Jiang, J., Biggins, J. B. & Thorson, J. S. A General Enzymatic Method for the Synthesis of Natural and “Unnatural” UDP- and TDP-Nucleotide Sugars. J. Am. Chem. Soc. 122, 6803-6804 (2000). For the mutant pool assays, an aliquot which contained an eqimolar ratio of each mutant (60 μg) was utilized.

[3] = target: T1, Salmonella enterica LT2 α-D-glucopyranosyl phosphate thymidylyltransferase (Ep); experiment: Ep-catalyzed conversion of aminodeoxy/acetamidodeoxy sugar phosphates with inorganic pyrophosphatase, HPLC (FIG. 4); format: biochemical; conditions: for product formation with dTTP: 2.5 mM NTP, 5.0 mM sugar phosphate, 10 U inorganic pyrophosphatase, 30 min, 37° C.
Method: To evaluate the synthetic utility of thymidylyl-transferase, purified Ep, α-D-glucopyranosyl phosphate, Mg^+2, NTP and inorganic pyrophosphatase were incubated at 37° C. for 30 min and the extent of product formation determined by HPLC. The inorganic pyrophosphatase was included to drive the reaction forward. A reaction containing 2.5 mM NTP, 5.0 mM sugar phosphate, 5.5 mM MgCl2 and 10 U inorganic pyrophosphatase in a total volume of 50 μL 50 mM potassium phosphate buffer, pH 7.5 at 37° C. was initiated by the addition of 3.52 U Ep (1 U=the amount of protein needed to produce […] TDP-D-glucose min^−1). The reaction was incubated with slow agitation for 30 min at 37° C., quenched with MeOH (50 μL), centrifuged (5 min, 14,000×g) and the supernatant was stored at −20° C. until analysis by HPLC. Samples (30 μL) were resolved on a Sphereclone 5u SAX column (150×4.6 mm) fitted with a SecurityGuard ™ cartridge (Phenomenex; Torrance, Calif.) using a linear gradient (50–200 mM potassium phosphate buffer, pH 5.0, 1.5 mL min^−1, A275 nm).
The results of these assays are illustrated in FIG. 4. For each assay, confirmation of product formation was based upon high resolution mass spectroscopy of HPLC-isolated products and, also in some cases, HPLC co-elution with commercially available standards.
A reaction containing 2.5 mM NTP, 5.0 mM sugar phosphate, 5.5 mM MgCl2 and 10 U inorganic pyrophosphatase in a total volume of 50 μL 50 mM potassium phosphate buffer, pH 7.5 at 37° C. was initiated by the addition of 3.52 U Ep (1 U=the amount of protein needed to produce 1 μmol TDP-α-D-glucose min^−1) The reaction was incubated with slow agitation for 30 min at 37° C., quenched with MeOH (50 μL), centrifuged (5 min, 14,000×g) and the supernatant was stored at −20° C. until analysis by HPLC. Samples (30 μL) were resolved on a Sphereclone 5u SAX column (250×4.6 mm) fitted with a guard column (30×4.6 mm) using a linear gradient (50–200 mM potassium phosphate buffer, pH 5.0, 1.5 mL min^−1, A275 nm).

Ep Thr102Ala mutant = target: T2, Ep Thr102Ala mutant (Salmonella typhimurium, UniProt P26393, T201A); experiment: Individual mutant analysis: Thr102Ala; format: biochemical, Salmonella enterica LT2; conditions: over wild-type Ep
T2 construct: made in house
Source text: (§2) Thr102Ala, on the other hand, was responsible for the 2-fold increase in the conversion of (108). […] Yet, cumulatively, this small set of directed mutants was able to successfully turn over three of four targeted “unnatural” substrates. […] This Ep variant will serve as an excellent foundation for second generation double mutants.
as §1

wild-type Ep = target: T3, wild-type Ep (Salmonella typhimurium, UniProt P26393); experiment: Conversion of sugar phosphates by wild-type enzyme (FIG. 11); format: biochemical, Salmonella enterica LT2
T3 construct: made in house; host or cells: E. coli (E. coli-prfbA-C)
Method: (§3) FIG. 11. Percent conversion of sugar phosphates according to the present invention by wild-type and mutant enzymes. The alterations from native substrate (Glc-1-P,1) are highlighted in red. For the mutant pool, mutants Asp41Asn, Glu62Asp, Thr201A and Trp224His were pooled, concentrated and an aliquote constituting 60 μg of each mutant (corresponding to 3.5U Ep) was utilized for the assay.
Percent conversion was determined as described in Jiang, J., Biggins, J. B. & Thorson, J. S. A General Enzymatic Method for the Synthesis of Natural and “Unnatural” UDP- and TDP-Nucleotide Sugars. J. Am. Chem. Soc. 122, 6803–6804 (2000).
as §1

[4] = Specific activity of purified Ep (1 U = protein needed to produce 1 μmol TDP-D-glucose min^−1); format: biochemical, Salmonella enterica LT2; conditions: purified to near homogeneity
Source text: Ep is encoded by rmlA, which was previously known as rfbA (Reeves et al. Trends Microbiol. 1996, 4, 495–502). The rmlA-encoded Ep was overexpressed in E. coli to provide the desired Ep as >5% of the total soluble protein. The corresponding Ep was purified to near homogeniety with a specific activity of 110 U mg^−1, a 2-fold improvement over the previously reported values. (See Lindquist, L.; Kaiser, R.; Reeves, P. R.; Lindberg, A. A. Eur. J. Biochem., 1993, 211, 763–770.) An (NH4)2SO4 precipitate of E. coli-prfbA-C crude extracts was dialyzed against buffer B (20 mM Tris.HCl, 1 mM EDTA, pH 7.5) The dialysate was resolved by anion exchange (DE52, 3×15 cm, 50 mL buffer B wash followed by a linear gradient of 0–500 mM NaCl, 1.0 mL min^−1) and the Ep fractions combined, concentrated and further resolved by FPLC gel filtration (S-200, 2×70 cm, 50 mM Tris.HCl, 200 mM NaCl, pH 7.5). The purified Ep was stored in aliquots (−80° C.) until used.
To evaluate the synthetic utility of purified thymidylyltransferase, Ep, α-D-hexopyranosyl phosphate, Mg^+2 and NTP were incubated at about 37° C. for about 30 min and the extent of product formation determined by HPLC. The results of these assays are illustrated in FIG. 2. Confirmation of product formation was based upon HPLC co-elution with commercially available standards and/or HPLC isolation and high resolution mass spectroscopy of the product. […]

[5] = tested on: mutant pool (Asp41Asn, Glu62Asp, Thr201A and Trp224His Ep mutants); experiment: Conversion of sugar phosphates by pooled Ep mutants (FIG. 11); format: biochemical, Salmonella enterica LT2; conditions: 60 μg of each mutant
Method: as §3
As a rapid means to assay the entire pool of the four newly constructed mutants, the mutants were combined and the mixture directly tested for ability to convert compounds (2), (108), (89), (102), (38), and (127). […] Those substrates turned over include […] and (127), the two sugar phosphates not accepted or poorly accepted by wild-type Ep.
as §1

Ep Trp224His mutant = target: T4, Ep Trp224His mutant (Salmonella typhimurium, UniProt P26393, W224H); experiment: Individual mutant analysis: Trp224His; format: biochemical, Salmonella enterica LT2; conditions: deconvolution of the mutant pool
T4 construct: made in house
Source text: as §2, §1

In the case of `O=P(O)(O)O[C@H]1O[C@H](CO)[C@@H](O)[C@H](O)[C@H]1O` [compound 2, α-D-glucopyranosyl phosphate], the “activity as Ep substrate with TTP” value [1] is reported as “prefers”, the Km [2] is reported as 300 ± 100 µM and the Vmax [2] is reported as 0.03 ± 0.02 mM/min.

With `CC(=O)N[C@H]1[C@@H](OP(=O)(O)O)O[C@H](CO)[C@@H](O)[C@@H]1O` [compound 108, 2-acetamido-2-deoxy-α-D-glucopyranosyl phosphate, reference compound] the “product formation with dTTP” value [3] was “well-tolerated”, the “increase in conversion by Thr102Ala mutant” value (Ep Thr102Ala mutant) was 2 fold and the “acceptance / conversion by wild-type Ep” value (wild-type Ep) was “poor conversion”.

For “Ep: Salmonella enterica LT2 rmlA-encoded α-D-glucopyranosyl phosphate thymidylyltransferase, overexpressed in E. coli and purified”, the specific activity [4] was 110 U mg^−1.

With `CC(=O)NC[C@H]1O[C@H](OP(=O)([O-])[O-])[C@H](O)[C@@H](O)[C@@H]1O.[Na+].[Na+]` [compound 86, Disodium-(6-acetamido-6-deoxy-α-D-glucopyranosyl) Phosphate] the “turnover by the mutant pool” value [5] was “turned over”, the “product formation with dTTP” value [3] was “less activity” and the “increase of product formation with UTP in comparison to dTTP” value ([3]; FIG. 4) was 8 fold. For the same compound, the “acceptance / conversion by wild-type Ep” value (wild-type Ep) was “not well-accepted” and the “conversion by Trp224His mutant” value (Ep Trp224His mutant) was “responsible for converting”.
